The values below come from publication PMC11650737, “Developing MYC Degraders Bearing the Von Hippel–Lindau Ligand to Target the “Undruggable” MYC” (ACS Pharmacology & Translational Science, 2024).

Values joined by “and” are separate entries in the source; they are usually repeats but may differ in a detail not shown here. Identical values can stand only once.

The nature of series [1]: Pharmacokinetic study in mice. Format: in vivo, mice (male C57BL/6J). To be noted: for adverse effects during the study / level in blood circulation 24 h after treatment / AUCs: i.p.; for adverse effects during the study: 10 mg/kg single dose; for level in blood circulation 24 h after treatment / AUCs / concentration at 8 h / Cmax / Tmax / half-life: 10 mg/kg; for AUCs / Cmax / Tmax: blood; for concentration at 8 h / Cmax / Tmax / half-life: male, C57BL/6J, mouse, whole blood; for concentration at 8 h: read-out: average blood concentration 8 h after administration; for half-life: noncompartmental analysis, read-out: T ½ (converted). On the procedure: In order to assess the efficacy potential of MYC degraders in animal models, pharmacokinetic studies were carried out in mice (Figure 6A,B). Following intraperitoneal (i.p.) administration of selected compounds, CSI86, CSI135, and CSI107 at 10 mg/kg, blood samples were collected at different time points until 24 h post-drug administration, and concentrations were determined via LC-MS/MS.
Animals that were used for the study were male C57BL/6J (n = 7) at the age of 6–8 weeks (average weight = 20–25 g). Each PROTAC was administered at 10 mg/kg, and the dosing volume per animal was 200 μL. The vehicle for CSI86, CSI107, and […], respectively, was corn oil/10% DMSO, and the administration was i.p. CSI86 was also administered PO at the same dose using 0.5% carboxymethyl cellulose (CMC) as a vehicle in water. Whole blood from two control mice was used for the preparation of standard solutions.
A serial tail bleeding protocol was performed for the collection of blood samples. Blood samples (10 μL) were collected at selected time points (15 min, 30 min, 1 h, 2 h, 4 h, 6 h, 8 h, and 24 h) in tubes containing 40 μL of sodium citrate (0.1 M, pH 4.5) and stored at −80 °C until the day of the analysis.
For the calculation of T1/2, a noncompartmental pharmacokinetics analysis was used via the online application “Dash App Gallery Pharmacokinetics Calculator.” […]
Characterization and Quantitative Analysis of PROTACs by Liquid Chromatography-Mass Spectrometry […]
For detection and quantification of the PROTACs in medium and biological samples, LC-MS/MS methodologies were developed. Mass spectrometry was performed on a Triple Quad 5500 + LC-MS/MS system fitted with a TurboIonSpray source and a hybrid triple quadrupole/linear ion trap mass spectrometer. HPLC was performed using an Exion LC AB Sciex system with a temperature-controlled column compartment and an autosampler. A C8 column (SunFire 2.1 x 50 mm, 3.5 μm) (Waters, MA, USA) was used at a flow rate of 0.3 mL/min for the separation of the analytes of interest. The mobile phase consisted of A: 10% ACN, 90% water, 2 mM ammonium acetate, and 0.1% FA and B: 90% ACN, 10% water, 2 mM ammonium acetate, and 0.1% FA, the injection volume was 10 μL. Elution of CSI86 PROTAC was achieved by a gradient of solvent A – solvent B described as follows: 100% A (0.0 - 0.5 min), 20% A (1.0 – […]
3.0 min), 100% A (3.1 – 5.1 min).
1040.5, for the CSI86 PROTAC with exact mass of 1039 (g/mol). Elution of CSI107 PROTAC was achieved by a gradient of solvent A – solvent B described as follows: 80% A (0.0 - 0.5 min), 15% A (1.5 – 3.5 min), […]
the CSI107 PROTAC with an exact mass of 1053 (g/mol).
Table S1: Optimized parameters for the LC-MS/MS analysis. […]
Detection protein degraders in mouse blood by LC-MS/MS analysis
For the LC-MS/MS analysis of the PK study, sample preparation was performed as follows.
Double Blank Blank + IS Standards
50 μL blood 50 μL blood 50 μL blood
10 μL ACN: H 2O 10 μL ACN: H 2O 10 μL std
300 μL of cold ACN were added in all samples for protein precipitation, followed by centrifugation at 13000 rpm for 10 min. The supernatant was transferred in glass tubes and evaporated at 55 °C for approximately 1 h. The samples were reconstituted in Mobile Phase A (90% H2O-10% ACN, 0.1% FA, 2 mM ammonium acetate) and the circulating amount of PROTAC was determined by LC-MS/MS analysis using a stable internal standard such as Warfarin or BETd-260 respectively. Gradient (20% A – 80% B) LC-MS/MS conditions were applied and the concentration range for the standard curve was 1 - 10.000 ng/mL. […]

For series [2], the target named is T1, recombinant bHLH-MYC protein (Homo sapiens, UniProt P01106).
T1 construct: The recombinant bHLHZ-Myc protein carrying an aminoterminal His6-tag; made in house; host or cells: bacteria
T1 sequence (P01106 368-452 limits assumed): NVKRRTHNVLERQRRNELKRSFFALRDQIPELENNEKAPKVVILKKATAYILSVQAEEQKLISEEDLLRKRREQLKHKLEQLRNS
Put plainly: Direct binding to MYC by microscale thermophoresis (MST). As to conditions: compound 200 μM, labeled MYC 25 nM. On the procedure: To investigate the capacity of MYC degraders to directly bind to MYC, microscale thermophoresis (MST) experiments were performed using recombinant bHLH-MYC protein. MST is a very sensitive, recently developed method based on the shift of fluorescent molecules moving in a temperature gradient that can be perturbed by interactions with other molecules. In this binding assay, a His6-tagged bHLH-MYC protein was fluorescently labeled via its hexa-histidine tag and subjected to MST measurement in the absence and in the presence of MYC degraders. All compounds tested shifted MYC thermophoresis (Figure 4), as shown by normalized fluorescence values, a clear indication that they bound directly to MYC. MST experiments were also run under identical conditions using two reference Myc inhibitors as positive controls: the biphenyl pyrazole MYCi361 and a thiazolidinone derivative, 10058-F4. Both are well-characterized MYC binders: The first one has been used as a POI ligand for the PROTACs designed and synthesized in this work, and the latter is widely known to inhibit MYC by specifically disrupting the MYC–Max complex formation.
Figure 4 Assay of direct binding to MYC by microscale thermophoresis (MST): MST of fluorescently labeled MYC (25 nM) mixed with several MYC degraders (200 μM) or the solvent alone (DMSO). MST of MYC binders 10058-F4 and MYCi361 used as positive controls. Data are shown as mean ± SEM.
Microscale thermophoresis (MST) assay was used to determine whether PROTACs bind directly to MYC. The recombinant bHLHZ-Myc protein carrying an aminoterminal His6-tag was expressed in bacteria from a plasmid kindly provided by George Sianidis (BRFAA, Greece) and purified, as previously described,[33] with minor modifications. […] MST was measured using a Monolith NT.115Pico with a red filter at an ambient temperature of 25 °C. […] Results were analyzed using the software provided with the Monolith instrument. Data are reported as ΔFnorm, which results from subtracting the normalized fluorescence value (Fnorm) of MYC in the absence of PROTAC from Fnorm in excess of PROTAC (bound state).
For orientation: In MST a laser heats a spot of the sample, and binding alters the fluorescence response.

For `Cc1ncsc1-c1ccc(CNC(=O)[C@@H]2C[C@@H](O)CN2C(=O)[C@@H](NC(=O)CCC(=O)NCCCOc2ccc(-c3cc(C(F)(F)F)nn3C)c(O)c2-c2cc(C(F)(F)F)cc(C(F)(F)F)c2)C(C)(C)C)cc1` [CSI86], in series [1], the “adverse effects during the study” value is “no adverse effects were reported”, the “level in blood circulation 24 h after treatment” value (“level in blood circulation 24 h” for short) is recorded as “evident levels of the degrader being present in blood circulation” and the AUCs is 8,4 h x μg/mL. In addition, in series [1] (ip), the concentration at 8 h is ~500 ng/mL and ~480 nM; the maximum concentration (Cmax) is 713 ng/mL and 686 nM; the Tmax amounted to 2 h; the half-life is 7.4 h. Moreover, in series [1] (oral gavage (PO)), the Cmax is < 100 ng/mL. In series [2], the “direct binding to MYC (shift of MYC thermophoresis)” value is recorded as “equally potent”.

Turning to `Cc1ncsc1-c1ccc(CNC(=O)[C@@H]2C[C@@H](O)CN2C(=O)[C@@H](NC(=O)CCCC(=O)NCCCOc2ccc(-c3cc(C(F)(F)F)nn3C)c(O)c2-c2cc(C(F)(F)F)cc(C(F)(F)F)c2)C(C)(C)C)cc1` [CSI107], in series [1], the “adverse effects during the study” value was “no adverse effects were reported”, the “level in blood circulation 24 h” value is “evident levels of the degrader being present in blood circulation” and the AUCs is given as 3,4 h x μg/mL. Also, in series [1] (ip), the concentration at 8 h is ~150 ng/mL and ~140 nM; the highest concentration (Cmax) is 413 ng/mL and 392 nM; the Tmax was 2 h; the half-life was 5 ± 0.5 h. The “direct binding to MYC (shift of MYC thermophoresis)” value in series [2] is given as “equally potent”.

For the molecule `Cc1ncsc1-c1ccc(CNC(=O)[C@@H]2C[C@@H](O)CN2C(=O)[C@@H](NC(=O)COCCOCC(=O)NCCCOc2ccc(-c3cc(C(F)(F)F)nn3C)c(O)c2-c2cc(C(F)(F)F)cc(C(F)(F)F)c2)C(C)(C)C)cc1` [CSI135], in series [1], the “adverse effects during the study” value is recorded as “no adverse effects were reported”, the “level in blood circulation 24 h” value is “evident levels of the degrader being present in blood circulation” and the AUCs amounted to 6 h x μg/mL. In addition, in series [1] (ip), the Cmax is 699 ng/mL and 636 nM; the Tmax was 2 h; the half-life was 7.6 h. Further, the “direct binding to MYC (shift of MYC thermophoresis)” value in series [2] was “equally potent”.

What is called Cmax is the maximum level reached in the sampled fluid or tissue. Broadly, the Tmax is the time from dosing to the highest level.
